Measured values as given in patent US20120094939A1, “ANTI-VIRAL COMPOUNDS, COMPOSITIONS AND METHODS” (priority 2007, published 2012).
Read-outs that look alike come from different tables or passages of the source.

Columns and labels:
[1] = system: Huh7/Rep-Feo HCV replicon (HCV RNA replication); assay type: cell-based, Hepatitis C virus (strain HCV—N, genotype 1b)
Excerpt: Development of the Huh7/Rep-Feo replicon assay. […] This replicon was derived from a chimpanzee infectious clone (strain HCV—N, genotype 1b). In this replicon, the structural genes have been replaced by a reporter gene. The chimeric reporter gene Feo encodes the firefly luciferase protein fused in-frame with neomycin phosphotransferase. This Huh7/Rep-Feo cell supports high levels of autonomous HCV RNA replication because it was derived from the HCV—N strain, which carries an adaptive mutation in NSSA that confers highlevel replication in tissue culture. Furthermore, the level of luciferase correlates well with levels of HCV RNA production, so that luciferase can be used as a reliable surrogate marker for HCV replication. The use of luciferase as a reporter permits quantitative and highthroughput detection of HCV replication levels. The specific use of firefly luciferase makes this replicon especially well-suited for automation, because the luciferase reagent can be added directly to the cell culture system prior to signal detection without the need for cell lysis, washing, or aspiration.
HCV Replicon System-Primary Screening. […] Briefly, this replicon harbors a subgenomic HCV genotype 1b sequence, fused to firefly luciferase, stably replicating under neomycin selection. Cells were propagated in Dulbecco's Modified Eagle's medium (DMEM) containing 10% fetal bovine serum (FBS) supplemented with 1% penicillin-streptomycin, and 500 μg of Geneticin (Invitrogen Corp., Carlsbad, Calif.)/mL. Cells were cultured in a 37° C., 5% CO2-humidified incubator for all experiments. To decrease day-today variability in the assay, a large homogenous population of subconfluent cells was passaged so that a similar lot of cells could be used throughout the HTS assay.
(§1) Primary Screening-HTS. Information about the library of known bioactive compounds that was screened and the general automated HTS protocol is available at http://www.broad.harvard.edu/chembio/index.html (see FIG. 10 for list of primary HTS with known bioactives library). Based on the results of optimization experiments in the 384-well plate format, the general HTS protocol was adapted as follows. Unless otherwise indicated, cells were incubated at all times in a humidified environment with 5% CO2 at 37° C. The assay was initiated by plating 30 μL of medium containing 2000 cells/well into white 384-well opaque-bottom plates (Nunc, Rochester, N.Y.) using an automated plate filler (Bio-Tek uFiller; Winsooki, Vt.) and allowing the cells to adhere for 24 hours. One hundred nL of compound stock solutions in DMSO was transferred from stock plates into the 384-well assay plates using an automated pin-based compound transfer robot (CyBio CyBi-Well vario; Woburn, Mass.). The final compound concentration in each well was estimated to be approximately 10-50 μM, with most compounds at 33 μM. The wells contained 0.33% DMSO by volume. The cells were then incubated for another 48 hours. The luminescent signal from each plate was detected using an automated plate reader (Perkin-Elmer Envision 1; Wellesley, Mass.). This screen was performed in duplicate. For negative controls, entire DMSO-treated control plates were employed, in addition to DMSO-only control wells that were incorporated into each compound assay plate. The cells were assayed for luciferase activity using the Bright-Glo Luciferase assay system (Promega), following the manufacturer's instructions. As a counter-screen, cell viability was assessed using the CellTiterGlo Luminescent cell viability assay (Promega) following the manufacturer's instructions.
Computational Data Analysis-Primary Screening. For each replicate, a mock-treatment distribution based on the total population of mock (DMSO) controls in that replicate was built (FIG. 11).

[2] = system: OR6 cells harboring full-length genotype 1b HCV replicon ORN/C-5B/KE (HCV RNA replication); assay: microbe, parasite or virus in culture; assay type: cell-based, Hepatitis C virus (strain HCV—O; settings: for antiviral activity (in words) / proviral effect on HCV replication (in words): OR6 full-length replicon; for proviral effect on HCV replication (in words): 0.1-100 μM
Excerpt: (§2) HCV Replicon System-Secondary Assays. For validation, OR6 cells stably harboring the full-length genotype 1 replicon, ORN/C-5B/KE9 were used to examine compound activity in a more authentic viral polyprotein context. This replicon was derived from the 1B-2 strain (strain HCV—O, genotype 1b), in which the Renilla luciferase gene is introduced as a fusion protein with neomycin to facilitate the monitoring of HCV replication. This construct contains a tissue culture adaptive mutation in the NS3 region. Cells were cultured in an identical manner to the Huh7/Rep-Feo cells.
Secondary Assays-Hit Validation. Several hits from primary HTS, as well as functionally related compounds, were purchased from Sigma (St. Louis, Mo.), Calbiochem (San Diego, Calif.), and Microsource (Gaylordsville, Conn.). […] Ten mM of stock solutions of the individual compounds to be tested was prepared in the appropriate solvent (DMSO, ethanol, or H2O, according to the manufacturer's information) and stored at −20° C. Cells were seeded into 96-well plates at a density of 2000 cells/well in 100 μL of medium. The cells were incubated for 24 hours at 37° C. to obtain the optimal level of adherence. Solutions of candidate hit compounds were added to wells to achieve final concentrations of 0.1, 1, 10, 50, and 100 μM. The final concentration of DMSO or ethanol in every well was 1% or less by volume. Mock solutions were used as a negative control. PEG-IFN and ribavirin were used as positive controls at various concentrations, alone and in combination. The plates were then incubated at 37° C. with 5% CO2 for 48 hours before they were analyzed. Luminescent signal was generated using the Renilla luciferase assay kit (Promega) according to the manufacturer's instructions. Signal was then detected using a LumiCount (Packard BioScience Company) luminometer. Cell viability was assessed using CellTiter-Glo (Promega), following the manufacturer's instructions. All experiments were performed in triplicate.
Secondary Assays-Data Analysis. Values were presented as a percentage of mock treated control, which was arbitrarily set at 100%. Data were expressed as the mean (±) SD. […] Synergy calculations were performed using CalcuSyn (Biosoft; Cambridge, England).
as §2, with “System—Secondary Assays:” for “System-Secondary Assays.”, “For replicon” for “For”, “ORN/C-5B/KE” for “ORN/C-5B/KE9”, “(Burke J. Am. Chem. Soc. (2004) 126:14095-14104).” for “to examine compound activity in a more authentic viral polyprotein context.”, “the Neomycin resistance cassette” for “neomycin”
Secondary Assays—Hit Validation: 10 mM of stock solutions of the individual compounds to be tested were prepared in DMSO and stored at −20° C. Cells were seeded into 96-well plates at a density of 2,000 cells/well in 100 μl of medium. The cells were incubated for 24 hours at 37° C. to obtain the optimal level of adherence. Solutions of candidate hit compounds were added to wells to achieve varying final concentrations between 0.01 and 100 μM. The final concentration of DMSO or ethanol in every well was 1% or less by volume. Mock solutions were used as a negative control. Peginterferon-alfa-2b (PEG-Intron; Schering Corp.; Kenilworth, N.J.) and ribavirin (Sigma; St. Louis, Mo.) were used as positive controls at various concentrations, alone and in combination. The plates were then incubated at 37° C. with 5% CO2 for 48 hours before they were analyzed. Luminescent signal was generated using the Renilla luciferase assay kit (Promega; Madison, Wis.) according to the manufacturer's instructions. Signal was then detected using a LumiCount™ (Packard BioScience Company; Downers Grove, Ill.) luminometer.

[3] = system: Huh7/Rep-Feo cells; assay: Primary HTS cell viability counter-screen (CellTiterGlo); assay type: cell-based, human; settings: Table 2 antiviral hits of DOS set; approximately 10-50 μM, most at 33 μM; 48 hours
Procedure: as §1
Computational Data Analysis-Primary Screening. For each replicate, a mock-treatment distribution based on the total population of mock (DMSO) controls in that replicate was built (FIG. 11). Each compound was independently assigned a sign (ie, “+” or “−”) Z-score. Z-scores are calculated by dividing each background-subtracted, compound-treated well by the global standard deviation. A global standard deviation of the background-subtracted, mock-treated wells is calculated over the entire experiment. This distribution was determined to be consistent with experimental noise observed under cell-based assay conditions. The resulting collection of continuousvalued Z-scores represents the primary data set to be used for further analysis. The composite Z-score was calculated as a vector projection of each Z-score in duplicate onto an imaginary line of perfect reproducibility. Reproducibility is the cosine of the angle between each Z-score and that imaginary line; it is dimensionless and ranges from −1 to +1. […] The primary data were analyzed using the commercial software packages Pipeline Pilot (SciTegic, San Diego, Calif.) and SpotFire (SpotFire, Inc., Somerville, Mass.). The means of the negative, DMSO-only controls were considered the zero point.
Primary Screening—HTS: Unless otherwise indicated, cells were incubated at all times in a humidified environment with 5% CO2 at 37° C. The assay was initiated by plating 30 μl of medium containing 2,000 cells/well into white 384-well opaque-bottom plates (Nunc; Rochester, N.Y.) using an automated plate filler (Bio-Tek μFiller; Winsooki, Vt.) and allowing the cells to adhere for 24 hours. 100 nl of compound stock solutions in DMSO were transferred from stock plates into the 384-well assay plates using an automated pin-based compound transfer robot (CyBio CyBi-Well vario; Woburn, Mass.). The final compound concentration in each well was estimated to be approximately 10-50 μM, with most compounds at 33 μM. The wells contained 0.33% DMSO by volume. The cells were then incubated for another 48 hours. […]

[4] = known bioactives library, approximately 10-50 μM, most at 33 μM

## CC(C)c1c(C(=O)Nc2ccccc2)c(-c2ccccc2)c(-c2ccc(F)cc2)n1CC[C@@H](O)C[C@@H](O)CC(=O)O [Atorvastatin, atorvastatin, reference compound]
[1]
  primary screen hit result (in words): Antiviral
[2]; 48 hours
  antiviral activity (in words): strong antiviral effects

## COc1ccc(O[C@H]2C=C[C@@H](c3ccccc3)O[C@@H]2CO/N=C2/[C@H]3CCn4c(=O)n(-c5ccccc5)c(=O)n4[C@H]3[C@H](O)[C@@H]3O[C@H]23)cc1 [BUCMLD-B10A1]
[1]; Table 2 antiviral hits of DOS set, approximately 10-50 μM, most at 33 μM, 48 hours
  R-CompZ, compositeZ score for reporter gene assay: −4.4774
[3]
  C-CompZ, compositeZ score for cell viability assay: −1.5319

## C=CC[C@@H]1C=C[C@H](O/N=C2/[C@H]3CCn4c(=O)n(-c5ccccc5)c(=O)n4[C@H]3[C@H](O)[C@@H]3O[C@H]23)[C@@H](CO)O1 [BUCMLD-B10A7]
[1]
  R-CompZ, compositeZ score for reporter gene assay: −3.3561
[3]
  C-CompZ, compositeZ score for cell viability assay: 1.1731

## CC[C@H](C)C(=O)O[C@H]1C[C@@H](C)C=C2C=C[C@H](C)[C@H](CC[C@@H]3C[C@@H](O)CC(=O)O3)[C@H]21 [Lovastatin, lovastatin]
[2]; 48 hours
  antiviral activity (in words): weakly inhibitory

## CC(C)C[C@H](NC(=O)OCC1c2ccccc2-c2ccccc21)C(=O)O [N-(9-fluorenylmethoxycarbonyl)-L-leucine, reference compound]
[1]; [4]
  primary screen hit result (in words): proviral hit
[1]; known bioactives library, approximately 10-50 μM, most at 33 μM, listed as N-9-fluorenylmethoxycarbonyl-L-leucine
  primary screen hit result (in words): Proviral
[2]; 48 hours
  proviral effect on HCV replication (in words): mild proviral activity

## CC[C@H](C)C(=O)O[C@H]1C[C@H](O)C=C2C=C[C@H](C)[C@H](CC[C@@H](O)C[C@@H](O)CC(=O)O)[C@H]21 [Pravastatin, pravastatin]
[2]; Hepatitis C virus, OR6, read-out: inhibition of HCV replication
  inhibition at 100 µM: 30%

## Oc1ccc(-c2nc(-c3ccc(F)cc3)c(-c3ccncc3)[nH]2)cc1 [SB 202109, reference compound]
[1]; [4]
  primary screen hit result (in words): inactive
[2]; 48 hours
  antiviral activity (in words): inactive

## O=C1C2C=C(I)C(CC2OCCCCO)[C@@]12CCCO2 (some centres unmarked) [SM_A12B3]
[2]; 48 hours
  antiviral activity (in words): negligible antiviral activity

## C[C@]12C=CC(=O)C=C1CC[C@H]1[C@@H]3C[C@@H](O)[C@](O)(C(=O)CO)[C@@]3(C)C[C@H](O)[C@@]12F [Triamcinolone, triamcinolone, reference compound]
[1]
  primary screen hit result (in words): Proviral
[2]; 48 hours
  proviral effect on HCV replication (in words): confirmed to increase HCV replication

## CC(C)C1COc2cc3oc(=O)ccc3cc2O1 (centres unmarked) [dihydrobliquin, reference compound]
[1]; [4]
  primary screen hit result (in words): Proviral

## CC(C)(O)[C@@H]1Cc2cc3ccc(=O)oc3cc2O1 [marmesin, reference compound]
[1]; [4]
  primary screen hit result (in words): Proviral

## C[C@]12C=CC(=O)C=C1CC[C@@H]1[C@@H]2[C@@H](O)C[C@@]2(C)[C@H]1CC[C@]2(O)C(=O)CO [prednisolone]
[2]; 48 hours
  proviral effect on HCV replication (in words): increased HCV replication

## CC(C)NCC(O)COc1cccc2ccccc12 (centres unmarked) [propranolol, reference compound]
[1]
  primary screen hit result (in words): Antiviral

## NC(=O)c1ncn([C@@H]2O[C@H](CO)[C@@H](O)[C@H]2O)n1 [ribavirin]
[2]; Hepatitis C virus, OR6, 48 h, read-out: IC50 (HCV RNA replication, luciferase), OR6 full-length genotype 1b replicon, 48 hours
  IC50: 50 to 100 µM

## COc1ccc(CCN(C)CCCC(C#N)(c2ccc(OC)c(OC)c2)C(C)C)cc1OC (centres unmarked) [verapamil]
[2]; 48 hours
  antiviral activity (in words): did not exhibit antiviral activity

## CC1(C)C=Cc2cc3ccc(=O)oc3cc2O1 [xanthylentin, reference compound]
[1]; [4]
  primary screen hit result (in words): Proviral
